In patent US20130178469A1, “NOVEL ANTIVIRAL AGENTS” (SHANGHAI INSTITUTE OF ORGANIC CHEMISTRY (SIOC), priority 2010, published 2013) one finds EC50 data, which are given here for 22 compounds.

The EC50 is the concentration needed to bring the measured effect to its halfway point. A lower EC50 goes with higher potency in that assay.

A value given as a limit tells only on which side of the number the result lay.

In the assay the test system is HIV-1. Description: Luciferase Assay with single-round reporter virus (NLXLuc or HIV-Luc). The following applies: Human immunodeficiency virus 1. It is filed as cell-based. From the text: Infectivity assays using reporter viruses derived from lentiviral vectors capable of a single round of infection were used to determine the activity (EC50) of compounds. The DNA used to generate viruses for infection was the full-length HIV-1 genome which had been envelope-deleted. In addition, a reporter gene (the firefly luciferase gene from Photinus pyralis) was cloned into the nefregion of the HIV backbone for ease of assay readout. […]. Culture supernatants containing VSV-G pseudotyped virions were harvested 64 h post transfection, clarified by centrifugation to remove cell debris, and frozen at −70° C. until use.
293FT cells were plated out at 12000 cells per well in CellView 96-well cell culture plates (Invitrogen) 16 h prior to compound addition. Compounds were preincubated with cells for 4 h at 37° C. prior to the addition of virus sufficient to generate approximately 10000 Luciferase light units (as measured by the Victor Wallace luminometer) upon assaying using the Bright-Glo™ reagent (Promega) according to the manufacturer's instructions at 48 h post infection.
In the tables below, this assay is referred to as NLXLuc or HIV-Luc.
For the compound `CN1CCN(c2cc(N3CCOCC3)cn3c(=O)c(O)c(C(=O)NCc4ccc(F)cc4)nc23)C(=O)C1` [Example 16.4, 3-Hydroxy-9-(4-methyl-2-oxo-piperazin-1-yl)-7-morpholin-4-yl-4-oxo-4H-pyrido[1,2-a]pyrimidine-2-carboxylic acid 4-fluoro-benzylamide], the EC50 is 0.02 to 0.1 µM. `O=C(NCc1ccc(F)cc1)c1nc2c(N3CCNCC3=O)cc(N3CCCC3)cn2c(=O)c1O` [Example 4.4, 3-Hydroxy-4-oxo-9-(2-oxo-piperazin-1-yl)-7-pyrrolidin-1-yl-4H-pyrido[1,2-a]pyrimidine-2-carboxylic acid 4-fluoro-benzylamide] registered an EC50 of 0.1 to 1 µM.

`CN1CCN(c2cc(N(C)C)cn3c(=O)c(O)c(C(=O)NCc4ccc(F)cc4)nc23)C1=O` [Example 31.3, 7-Dimethylamino-3-hydroxy-9-(3-methyl-2-oxo-imidazolidin-1-yl)-4-oxo-4H-pyrido[1,2-a]pyrimidine-2-carboxylic acid 4-fluoro-benzylamide] registered a 50% effective concentration (EC50) of 0.1 to 1 µM. The figure for `Cc1ccc2nc(C(=O)NCc3ccc(F)cc3)c(O)c(=O)n2c1` [drawing 177, reference compound] is over 1 µM.

In the case of `CN1CCN(c2cc(N(C)S(C)(=O)=O)c3nc(C(=O)NCc4ccc(F)cc4)c(O)c(=O)n3c2)CC1` [Example 5.4, 3-Hydroxy-9-(methanesulfonyl-methyl-amino)-7-(4-methyl-piperazin-1-yl)-4-oxo-4H-pyrido[1,2-a]pyrimidine-2-carboxylic acid 4-fluoro-benzylamide], the EC50 fell in the range of 0.01 to 0.02 µM.

Take `CN1CCN(c2cc(N3CCCCC3=O)c3nc(C(=O)NCc4ccc(F)cc4)c(O)c(=O)n3c2)CC1` [Example 18.4, 3-Hydroxy-7-(4-methyl-piperazin-1-yl)-4-oxo-9-(2-oxo-piperidin-1-yl)-4H-pyrido[1,2-a]pyrimidine-2-carboxylic acid 4-fluoro-benzylamide]: the EC50 lay within 0.02 to 0.1 µM. The figure for `CC(C)N1CCN(c2cc(N3CCN(C)CC3)cn3c(=O)c(O)c(C(=O)NCc4ccc(F)cc4)nc23)C1=O` [Example 17.4, 3-Hydroxy-9-(3-isopropyl-2-oxo-imidazolidin-1-yl)-7-(4-methyl-piperazin-1-yl)-4-oxo-4H-pyrido[1,2-a]pyrimidine-2-carboxylic acid 4-fluoro-benzylamide] is 0.02 to 0.1 µM; for `CN(CC1CC1)c1cc(N2CCNCC2=O)c2nc(C(=O)NCc3ccc(F)cc3)c(O)c(=O)n2c1` [Example 13.4, 7-(Cyclopropylmethyl-methyl-amino)-3-hydroxy-4-oxo-9-(2-oxo-piperazin-1-yl)-4H-pyrido[1,2-a]pyrimidine-2-carboxylic acid 4-fluoro-benzylamide] it is 0.02 to 0.1 µM.

Take `CN(C)c1cc(N2CCCOC2=O)c2nc(C(=O)NCc3ccc(F)cc3)c(O)c(=O)n2c1` [Example 8.3, 7-(dimethylamino)-N-(4-fluorobenzyl)-3-hydroxy-4-oxo-9-(2-oxo-1,3-oxazinan-3-yl)-4H-pyrido[1,2-a]pyrimidine-2-carboxamide]: the EC50 is 0.02 to 0.1 µM. With `CN1CCN(c2cc(N3CCNCC3=O)c3nc(C(=O)NCc4ccc(F)cc4)c(O)c(=O)n3c2)CC1` [Example 14.3, 3-Hydroxy-7-(4-methyl-piperazin-1-yl)-4-oxo-9-(2-oxo-piperazin-1-yl)-4H-pyrido[1,2-a]pyrimidine-2-carboxylic acid 4-fluoro-benzylamide], the half-maximal effective concentration (EC50) is 0.1 to 1 µM.

Take `O=C(NCc1ccc(F)cc1)c1nc2c(N3CCCS3(=O)=O)cc(N3CCNCC3)cn2c(=O)c1O` [Example 33, 3-Hydroxy-4-oxo-9-(1,3-propanesultam)-7-piperazin-1-yl-4H-pyrido[1,2-a]pyrimidine-2-carboxylic acid 4-fluoro-benzylamide]: the EC50 fell in the range of 0.1 to 1 µM. The figure for `CN1CCN(c2cc(N3CCCOC3=O)c3nc(C(=O)NCc4ccc(F)cc4)c(O)c(=O)n3c2)CC1` [Example 1.4, N-(4-fluorobenzyl)-3-hydroxy-7-(4-methylpiperazin-1-yl)-4-oxo-9-(2-oxo-1,3-oxazinan-3-yl)-4H-pyrido[1,2-a]pyrimidine-2-carboxamide] is 0.1 to 1 µM; for `Cc1ccc2nc(C(=O)NCc3ccc(Cl)c(Cl)c3)c(O)c(=O)n2c1` [drawing 186, reference compound] it is 0.1 to 1 µM; for `O=C(NCc1ccc(F)cc1)c1nc2c(N3CCNCC3=O)cc(N3CCNCC3)cn2c(=O)c1O` [Example 15.3, 3-Hydroxy-4-oxo-9-(2-oxo-piperazin-1-yl)-7-piperazin-1-yl-4H-pyrido[1,2-a]pyrimidine-2-carboxylic acid 4-fluoro-benzylamide] it is 0.1 to 1 µM. Then `O=C(NCc1ccc(F)cc1)c1nc2c(N3CCNCC3=O)cc(N3CCCCC3)cn2c(=O)c1O` [Example 12.3, 3-Hydroxy-4-oxo-9-(2-oxo-piperazin-1-yl)-7-piperidin-1-yl-4H-pyrido[1,2-a]pyrimidine-2-carboxylic acid 4-fluoro-benzylamide], with 0.02 to 0.1 µM; and `CN1CCN(c2cc(N3CCOCC3)cn3c(=O)c(O)c(C(=O)NCc4ccc(F)cc4)nc23)C1=O` [Example 29.2, N-(4-fluorobenzyl)-3-hydroxy-9-(3-methyl-2-oxoimidazolidin-1-yl)-7-morpholino-4-oxo-4H-pyrido[1,2-a]pyrimidine-2-carboxamide], with 0.02 to 0.1 µM. Then `O=C(NCc1ccc(F)cc1)c1nc2c(N3CCOC3=O)cc(N3CCNCC3)cn2c(=O)c1O` [Example 19.4, 3-Hydroxy-4-oxo-9-(2-oxo-oxazolidin-3-yl)-7-piperazin-1-yl-4H-pyrido[1,2-a]pyrimidine-2-carboxylic acid 4-fluoro-benzylamide], with over 1 µM. `CN(C)c1cc(N2CCOC2=O)c2nc(C(=O)NCc3ccc(F)cc3)c(O)c(=O)n2c1` [Example 7.3, 7-(dimethylamino)-N-(4-fluorobenzyl)-3-hydroxy-4-oxo-9-(2-oxooxazolidin-3-yl)-4H-pyrido[1,2-a]pyrimidine-2-carboxamide]: the EC50 lay in the range of 0.1 to 1 µM. For the compound `CN(C)c1cc(N2CCNCC2=O)c2nc(C(=O)NCc3ccc(F)cc3)c(O)c(=O)n2c1` [Example 9.3, 7-(dimethylamino)-N-(4-fluorobenzyl)-3-hydroxy-4-oxo-9-(2-oxopiperazin-1-yl)-4H-pyrido[1,2-a]pyrimidine-2-carboxamide], the EC50 lay within 0.1 to 1 µM. `CN1CCN(c2cc(N3CCOCC3)cn3c(=O)c(O)c(C(=O)NCc4ccc(Cl)c(Cl)c4)nc23)C1=O` [Example 30, N-(3,4-dichlorobenzyl)-3-hydroxy-9-(3-methyl-2-oxoimidazolidin-1-yl)-7-morpholino-4-oxo-4H-pyrido[1,2-a]pyrimidine-2-carboxamide] came in with an EC50 of 0.02 to 0.1 µM. The figure for `O=C(NCc1ccc(F)cc1)c1nc2c(N3CCNCC3=O)cc(N3CCOCC3)cn2c(=O)c1O` [Example 10.3, N-(4-fluorobenzyl)-3-hydroxy-7-morpholino-4-oxo-9-(2-oxopiperazin-1-yl)-4H-pyrido[1,2-a]pyrimidine-2-carboxamide] is 0.1 to 1 µM; for `CC(C)N1CCN(c2cc(N(C)S(C)(=O)=O)c3nc(C(=O)NCc4ccc(F)cc4)c(O)c(=O)n3c2)CC1` [Example 6.3, Trifluoro-acetate4-[2-(4-fluoro-benzylcarbamoyl)-3-hydroxy-9-(methanesulfonyl-methyl-amino)-4-oxo-4H-pyrido[1,2-a]pyrimidin-7-yl]-1-isopropyl-piperazin-1-ium] it is 0.01 to 0.02 µM.
